The source of these data is patent US10668067B2, “Pyridine sulfonamides” (AMGEN INC., priority 2016, dated 2020).

As a reminder, the IC50 is the concentration at which inhibition is half-maximal. A high value points to a need for much substance.

human Nav1.7, sequence (Q15858 whole entry): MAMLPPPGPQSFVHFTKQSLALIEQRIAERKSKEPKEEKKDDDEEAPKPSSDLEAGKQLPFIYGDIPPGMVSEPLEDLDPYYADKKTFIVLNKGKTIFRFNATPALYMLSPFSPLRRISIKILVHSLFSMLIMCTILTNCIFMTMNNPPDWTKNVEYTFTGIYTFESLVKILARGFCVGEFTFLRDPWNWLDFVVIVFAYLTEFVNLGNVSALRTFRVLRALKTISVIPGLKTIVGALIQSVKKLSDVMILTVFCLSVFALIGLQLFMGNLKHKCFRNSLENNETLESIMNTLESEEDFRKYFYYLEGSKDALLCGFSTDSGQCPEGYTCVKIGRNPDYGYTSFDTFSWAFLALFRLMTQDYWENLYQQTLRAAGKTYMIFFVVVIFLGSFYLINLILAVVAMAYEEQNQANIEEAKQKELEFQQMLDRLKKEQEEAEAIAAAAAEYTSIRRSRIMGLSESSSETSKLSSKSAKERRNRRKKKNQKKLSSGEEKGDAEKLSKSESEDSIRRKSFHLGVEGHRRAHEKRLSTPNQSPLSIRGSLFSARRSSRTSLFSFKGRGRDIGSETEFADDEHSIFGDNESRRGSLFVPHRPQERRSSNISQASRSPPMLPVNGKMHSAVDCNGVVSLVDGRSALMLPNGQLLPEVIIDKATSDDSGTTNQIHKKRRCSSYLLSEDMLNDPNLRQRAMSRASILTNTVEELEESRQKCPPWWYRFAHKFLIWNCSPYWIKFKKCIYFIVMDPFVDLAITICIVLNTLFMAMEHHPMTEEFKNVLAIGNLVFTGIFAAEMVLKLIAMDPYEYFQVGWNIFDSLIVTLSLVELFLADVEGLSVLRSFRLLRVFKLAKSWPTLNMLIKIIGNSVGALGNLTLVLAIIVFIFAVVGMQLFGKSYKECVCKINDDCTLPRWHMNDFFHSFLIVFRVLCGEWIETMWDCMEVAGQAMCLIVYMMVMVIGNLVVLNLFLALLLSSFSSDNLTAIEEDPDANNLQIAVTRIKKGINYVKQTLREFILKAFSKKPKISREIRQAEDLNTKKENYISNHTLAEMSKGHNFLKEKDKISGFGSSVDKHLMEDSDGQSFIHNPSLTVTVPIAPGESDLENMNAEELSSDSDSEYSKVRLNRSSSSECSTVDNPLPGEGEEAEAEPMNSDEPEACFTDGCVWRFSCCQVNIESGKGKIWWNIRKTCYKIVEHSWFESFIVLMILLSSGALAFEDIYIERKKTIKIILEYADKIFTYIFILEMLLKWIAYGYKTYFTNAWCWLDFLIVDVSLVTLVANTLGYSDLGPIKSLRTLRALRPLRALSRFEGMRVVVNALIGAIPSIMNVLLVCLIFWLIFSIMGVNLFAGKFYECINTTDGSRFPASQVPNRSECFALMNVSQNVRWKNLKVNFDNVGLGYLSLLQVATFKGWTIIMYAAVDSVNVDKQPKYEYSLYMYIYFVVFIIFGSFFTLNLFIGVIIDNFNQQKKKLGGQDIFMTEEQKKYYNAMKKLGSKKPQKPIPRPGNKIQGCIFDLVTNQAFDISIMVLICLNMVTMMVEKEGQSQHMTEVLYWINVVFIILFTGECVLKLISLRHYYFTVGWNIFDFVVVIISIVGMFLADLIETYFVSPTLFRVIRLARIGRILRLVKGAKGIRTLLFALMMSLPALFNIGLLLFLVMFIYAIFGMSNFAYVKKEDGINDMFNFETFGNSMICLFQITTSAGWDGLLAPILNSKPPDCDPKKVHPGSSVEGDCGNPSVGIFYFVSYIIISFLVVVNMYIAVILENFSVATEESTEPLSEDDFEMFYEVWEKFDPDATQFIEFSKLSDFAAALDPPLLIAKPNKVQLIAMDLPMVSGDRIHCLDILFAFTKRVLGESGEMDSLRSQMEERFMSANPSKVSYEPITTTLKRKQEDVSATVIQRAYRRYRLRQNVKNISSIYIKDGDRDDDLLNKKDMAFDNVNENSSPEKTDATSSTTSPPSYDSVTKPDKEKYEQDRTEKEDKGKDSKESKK

The assay has as its target human Nav1.7 (Homo sapiens (Human), UniProt Q15858). The experiment in a line: Nav 1.7 In Vitro PX Assay (PatchXpress whole cell voltage clamp). The class given is cell-based. The settings on record: in-vitro Nav 1.7 PX data. The procedure:
HEK 293 cells stably transfected with human Nav1.7 were recorded in whole cell voltage clamp mode with the PatchXpress automated electrophysiology system (Molecular Devices, LLC, Sunnyvale, Calif.). Compound effects were measured on a partially inactivated state of the sodium channel. Cells were clamped to a holding potential yielding 20 to 50% inactivation. To elicit sodium current, channels were activated by pulsing to −10 mV for 20 msec. This voltage protocol was repeated at a rate of 0.1 Hz throughout the experiment. A single concentration of test compound was applied to cells for a duration of 3 minutes. Peak sodium current was measured at the end of the compound addition period to determine percent inhibition. Three to five cells were tested per concentration, and IC50 curves were fitted to percent inhibition as a function of concentration.
As to `CNC(=O)N(c1ccc(S(=O)(=O)Nc2ccon2)cn1)c1cc(F)c(-c2ccc(Cl)c(C)c2)cc1OC` [Example 1-1, 6-((4′-chloro-2-fluoro-5-methoxy-3′-methyl-4-biphenylyl)(methylcarbamoyl)amino)-N-3-isoxazolyl-3-pyridinesulfonamide], half-maximal inhibition (IC50) required 57 nM.
For `CNC(=O)N(c1ccc(S(=O)(=O)Nc2cccnn2)cn1)c1cc(F)c(-c2ccc(Cl)c(C)c2)cc1OC` [Example 1-2, 6-((4′-chloro-2-fluoro-5-methoxy-3′-methyl-4-biphenylyl)(methylcarbamoyl)amino)-N-3-pyridazinyl-3-pyridinesulfonamide] the value was 106 nM; for `CNC(=O)N(c1ccc(S(=O)(=O)Nc2cccnn2)cn1)c1cc(F)c(-c2cccc(C(F)(F)F)c2)cc1OC` [Example 1-3, 6-((2-fluoro-5-methoxy-3′-(trifluoromethyl)-4-biphenylyl)(methylcarbamoyl)amino)-N-3-pyridazinyl-3-pyridinesulfonamide], 40 nM; for `CNC(=O)N(c1ccc(S(=O)(=O)Nc2ccon2)cn1)c1cc(F)c(-c2cccc(C(F)(F)F)c2)cc1OC` [Example 1-4, 6-((2-fluoro-5-methoxy-3′-(trifluoromethyl)-4-biphenylyl)(methylcarbamoyl)amino)-N-3-isoxazolyl-3-pyridinesulfonamide], 33 nM.
In the case of `CNC(=O)N(c1ccc(S(=O)(=O)Nc2ccon2)cn1)c1cc(F)c(-c2cc(F)cc(Cl)c2)cc1OC` [Example 1-5, 6-((3′-chloro-2,5′-difluoro-5-methoxy-4-biphenylyl)(methylcarbamoyl)amino)-N-3-isoxazolyl-3-pyridinesulfonamide] it was 92 nM; in that of `CNC(=O)N(c1ccc(S(=O)(=O)Nc2ccon2)cn1)c1cc(F)c(-c2cc(Cl)cc(OC)c2)cc1OC` [Example 1-6, 6-((3′-chloro-2-fluoro-5,5′-dimethoxy-4-biphenylyl)(methylcarbamoyl)amino)-N-3-isoxazolyl-3-pyridinesulfonamide], 51 nM.
For `CNC(=O)N(c1ccc(S(=O)(=O)Nc2ccon2)cn1)c1cc(F)c(-c2cc(OC)cc(OC(F)(F)F)c2)cc1OC` [Example 1-7, 6-((2-fluoro-3′,5-dimethoxy-5′-(trifluoromethoxy)-4-biphenylyl)(methylcarbamoyl)amino)-N-3-isoxazolyl-3-pyridinesulfonamide] the value was 18 nM.
In turn, `CNC(=O)N(c1ccc(S(=O)(=O)Nc2ccon2)cn1)c1cc(F)c(-c2cccc(OC)c2)cc1OC` [Example 1-8, 6-((2-fluoro-3′,5-dimethoxy-4-biphenylyl)(methylcarbamoyl)amino)-N-3-isoxazolyl-3-pyridinesulfonamide] gave a 50% inhibitory concentration (IC50) of 206 nM.
In the case of `CNC(=O)N(c1ccc(S(=O)(=O)Nc2ccon2)cn1)c1cc(F)c(-c2cc(OC)cc(C(F)(F)F)c2)cc1OC` [Example 1-9, 6-((2-fluoro-3′,5-dimethoxy-5′-(trifluoromethyl)-4-biphenylyl)(methylcarbamoyl)amino)-N-3-isoxazolyl-3-pyridinesulfonamide] it was 18 nM; in that of `CNC(=O)N(c1ccc(S(=O)(=O)Nc2ccon2)cn1)c1cc(F)c(-c2ccc(Cl)c(Cl)c2)cc1OC` [Example 1-10, 6-((3′,4′-dichloro-2-fluoro-5-methoxy-4-biphenylyl)(methylcarbamoyl)amino)-N-3-isoxazolyl-3-pyridinesulfonamide], 9 nM; in that of `CNC(=O)N(c1ccc(S(=O)(=O)Nc2ccon2)cn1)c1cc(F)c(-c2ccc(Cl)c(C(F)(F)F)c2)cc1OC` [Example 1-11, 6-((4′-chloro-2-fluoro-5-methoxy-3′-(trifluoromethyl)-4-biphenylyl)(methylcarbamoyl)amino)-N-3-isoxazolyl-3-pyridinesulfonamide], 14 nM.
In the case of `CNC(=O)N(c1ccc(S(=O)(=O)Nc2ccon2)cn1)c1cc(F)c(-c2cccc(OCC(F)(F)F)c2)cc1OC` [Example 1-12, 6-((2-fluoro-5-methoxy-3′-(2,2,2-trifluoroethoxy)-4-biphenylyl)(methylcarbamoyl)amino)-N-3-isoxazolyl-3-pyridinesulfonamide] it was 85 nM; in that of `CNC(=O)N(c1ccc(S(=O)(=O)Nc2ccon2)cn1)c1cc(F)c(-c2cccc(C3CC3)c2)cc1OC` [Example 1-13, 6-((3′-cyclopropyl-2-fluoro-5-methoxy-4-biphenylyl)(methylcarbamoyl)amino)-N-3-isoxazolyl-3-pyridinesulfonamide], 46 nM; in that of `CNC(=O)N(c1ccc(S(=O)(=O)Nc2ccon2)cn1)c1cc(F)c(-c2cccc(OC(F)(F)F)c2)cc1OC` [Example 1-14, 6-((2-fluoro-5-methoxy-3′-(trifluoromethoxy)-4-biphenylyl)(methylcarbamoyl)amino)-N-3-isoxazolyl-3-pyridinesulfonamide], 17 nM.
Regarding `CNC(=O)N(c1ccc(S(=O)(=O)Nc2ccon2)cn1)c1cc(F)c(-c2ccc(C)c(F)c2)cc1OC` [Example 1-15, 6-((2,3′-difluoro-5-methoxy-4′-methyl-4-biphenylyl)(methylcarbamoyl)amino)-N-3-isoxazolyl-3-pyridinesulfonamide], the half-inhibitory concentration (IC50) was 124 nM.
In the case of `CNC(=O)N(c1ccc(S(=O)(=O)Nc2ccon2)cn1)c1cc(F)c(-c2ccc(F)c(C)c2)cc1OC` [Example 1-16, 6-((2,4′-difluoro-5-methoxy-3′-methyl-4-biphenylyl)(methylcarbamoyl)amino)-N-3-isoxazolyl-3-pyridinesulfonamide] it was 61 nM; in that of `CNC(=O)N(c1ccc(S(=O)(=O)Nc2ccon2)cn1)c1cc(F)c(-c2ccc(C)c(Cl)c2)cc1OC` [Example 1-17, 6-((3′-chloro-2-fluoro-5-methoxy-4′-methyl-4-biphenylyl)(methylcarbamoyl)amino)-N-3-isoxazolyl-3-pyridinesulfonamide], 31 nM; in that of `CNC(=O)N(c1ccc(S(=O)(=O)Nc2ccon2)cn1)c1cc(F)c(-c2cc(C)cc(F)c2)cc1OC` [Example 1-18, 6-((2,3′-difluoro-5-methoxy-5′-methyl-4-biphenylyl)(methylcarbamoyl)amino)-N-3-isoxazolyl-3-pyridinesulfonamide], 146 nM.
For `CNC(=O)N(c1ccc(S(=O)(=O)Nc2ccon2)cn1)c1cc(F)c(-c2cc(C)cc(Cl)c2)cc1OC` [Example 1-19, 6-((3′-chloro-2-fluoro-5-methoxy-5′-methyl-4-biphenylyl)(methylcarbamoyl)amino)-N-3-isoxazolyl-3-pyridinesulfonamide] the value was 47 nM; for `CNC(=O)N(c1ccc(S(=O)(=O)Nc2ccon2)cn1)c1cc(F)c(-c2ccc(Cl)c(F)c2)cc1OC` [Example 1-20, 6-((4′-chloro-2,3′-difluoro-5-methoxy-4-biphenylyl)(methylcarbamoyl)amino)-N-3-isoxazolyl-3-pyridinesulfonamide], 50 nM.
For `CNC(=O)N(c1ccc(S(=O)(=O)Nc2ccon2)cn1)c1cc(F)c(-c2ccc(F)c(Cl)c2)cc1OC` [Example 1-21, 6-((3′-chloro-2,4′-difluoro-5-methoxy-4-biphenylyl)(methylcarbamoyl)amino)-N-3-isoxazolyl-3-pyridinesulfonamide] the value was 37 nM.
The compound `CNC(=O)N(c1ccc(S(=O)(=O)Nc2ccon2)cn1)c1cc(F)c(-c2ccc(F)c(F)c2)cc1OC` [Example 1-22, N-3-isoxazolyl-6-((methylcarbamoyl)(2,3′,4′-trifluoro-5-methoxy-4-biphenylyl)amino)-3-pyridinesulfonamide] yielded an IC50 of 199 nM.
For `CNC(=O)N(c1ccc(S(=O)(=O)Nc2ccon2)cn1)c1cc(F)c(-c2cc(OC)c(F)c(OC)c2)cc1OC` [Example 1-23, 6-((2,4′-difluoro-3′,5,5′-trimethoxy-4-biphenylyl)(methylcarbamoyl)amino)-N-3-isoxazolyl-3-pyridinesulfonamide] the value was 151 nM; for `CNC(=O)N(c1ccc(S(=O)(=O)Nc2ccon2)cn1)c1cc(F)c(-c2cc(Cl)c(F)c(OC)c2)cc1OC` [Example 1-25, 6-((3′-chloro-2,4′-difluoro-5,5′-dimethoxy-4-biphenylyl)(methylcarbamoyl)amino)-N-3-isoxazolyl-3-pyridinesulfonamide], 16 nM.
`CNC(=O)N(c1ccc(S(=O)(=O)Nc2ccon2)cn1)c1cc(F)c(-c2ccc(F)c(C(F)(F)F)c2)cc1OC` [Example 1-26, 6-((2,4′-difluoro-5-methoxy-3′-(trifluoromethyl)-4-biphenylyl)(methylcarbamoyl)amino)-N-3-isoxazolyl-3-pyridinesulfonamide] had a 50% inhibitory concentration (IC50) of 12 nM.
For `CNC(=O)N(c1ccc(S(=O)(=O)Nc2ccon2)cn1)c1cc(F)c(-c2ccc(F)c(OC(F)(F)F)c2)cc1OC` [Example 1-27, 6-((2,4′-difluoro-5-methoxy-3′-(trifluoromethoxy)-4-biphenylyl)(methylcarbamoyl)amino)-N-3-isoxazolyl-3-pyridinesulfonamide] the value was 20 nM; for `CNC(=O)N(c1ccc(S(=O)(=O)Nc2ccon2)cn1)c1cc(Cl)c(-c2ccc(F)c(C)c2)cc1OC` [Example 1-28, 6-((2-chloro-4′-fluoro-5-methoxy-3′-methyl-4-biphenylyl)(methylcarbamoyl)amino)-N-3-isoxazolyl-3-pyridinesulfonamide], 58 nM; for `CNC(=O)N(c1ccc(S(=O)(=O)Nc2ccon2)cn1)c1cc(Cl)c(-c2ccc(Cl)c(C)c2)cc1OC` [Example 1-29, 6-((2,4′-dichloro-5-methoxy-3′-methyl-4-biphenylyl)(methylcarbamoyl)amino)-N-3-isoxazolyl-3-pyridinesulfonamide], 20 nM.
